The source of these data is patent US9394260B2, “Pyrimidinone carboxamide inhibitors of endothelial lipase” (BRISTOL-MYERS SQUIBB COMPANY, priority 2012, dated 2016).

The pIC50 is the negative decadic logarithm of the IC50, by convention in mol/L. Low readings indicate a high IC50, high ones a low IC50.

pIC50: −log10 of the molar value.

This assay deals with T1, endothelial lipase (EL) (Homo sapiens, UniProt Q9Y5X9).
T1 construct: transformed by RAGE technology (Athersys) to overexpress endogenous EL; endogenous in cells; conditioned medium used as the enzyme source
T1 sequence (Q9Y5X9 21-500): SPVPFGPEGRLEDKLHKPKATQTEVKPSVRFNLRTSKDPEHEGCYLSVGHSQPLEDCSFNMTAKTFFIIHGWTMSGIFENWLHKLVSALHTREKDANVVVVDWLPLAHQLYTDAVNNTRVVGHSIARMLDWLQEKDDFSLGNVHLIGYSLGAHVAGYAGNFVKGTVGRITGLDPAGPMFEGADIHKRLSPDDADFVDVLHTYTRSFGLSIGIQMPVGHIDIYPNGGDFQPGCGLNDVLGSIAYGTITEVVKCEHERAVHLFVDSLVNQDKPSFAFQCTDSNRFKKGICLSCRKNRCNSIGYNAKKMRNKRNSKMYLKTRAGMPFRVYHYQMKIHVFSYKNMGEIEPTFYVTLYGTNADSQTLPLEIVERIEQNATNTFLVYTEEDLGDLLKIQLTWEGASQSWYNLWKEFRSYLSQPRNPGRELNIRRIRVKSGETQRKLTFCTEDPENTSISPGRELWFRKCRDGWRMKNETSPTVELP
Kind of assay: Endothelial lipase (EL) enzymatic assay with fluorescent substrate A10070 in DMPG vesicles. The class given is biochemical. The conditions noted are these: conditioned media from HT-1080 cells overexpressing endogenous EL, 20 min preincubation at 37° C. As to the method:
Endothelial lipase activity was measured using a fluorescent substrate, A10070, (Invitrogen, CA) doped into an artificial vesicle containing DMPG (Avanti Polar Lipids) as the excipient. Vesicles were prepared by combining 285 μL of 1 mM DMPG in a 1:1 mixture of MeOH and CHCl3 with 15 μL of 1 mM A10070 in a 1:1 mixture of MeOH and CHCl3. The mixture was dried under nitrogen and resuspended in 150 μL of 50 mM HEPES pH 8.0 buffer containing 100 mM NaCl and 0.2 mM EDTA. The sample was allowed to sit at rt for 15 min and then was sonicated 3×4 mins on ice with a Branson Sonicator using duty cycle 1. This preparation provides vesicles with a mole fraction of 0.05 for the FRET substrate.
The enzymatic assay was measured using white, opaque 96-well half area plates. Each well contained 60 μL of assay buffer (50 mM HEPES pH 8.0, 50 mM NaCl and 1 mM CaCl2) and 2 ul of a DMSO solution containing compound of interest. Conditioned media obtained from HT-1080 cells, which were transformed by RAGE technology (Athersys) to overexpress endogenous EL, was added and the reaction was allowed to incubate for 20 min at 37° C. with gentle agitation. The reaction was started by the addition of 20 μL of a 1:4 dilution of vesicles. The final total reaction volume was 100 μL. The reaction rates were measured on a Gemini plate reader with an excitation wavelength of 488 nm and a emission of 530 nm. Readings were taken every 20 seconds for 10 min with agitation between each reading. The slope of the linear portion of the readout was used to calculate the rate of the reaction.
The exemplified examples disclosed in the present invention were tested in the EL assay described above and found having EL inhibitory activity. A range of EL IC50 values of ≦10 μM (10000 nM) was observed.
`Nc1c(C(=O)NC[C@H]2C[C@@H]2c2ccc(F)cc2)[nH]c(=O)[nH]c1=O` [Example 29, 5-amino-N-(((1S,2S)-2-(4-fluorophenyl)cyclopropyl)methyl)-2,6-dioxo-1,2,3,6-tetrahydropyrimidine-4-carboxamide]: the pIC50 was 5.13.
Consider `CC(C)(C)OC(=O)N1CCN(c2cccc(CNC(=O)c3[nH]c(=O)[nH]c(=O)c3N)c2)CC1` [Example 33, tert-butyl 4-(3-((5-amino-2,6-dioxo-1,2,3,6-tetrahydro-pyrimidine-4-carboxamido)methyl)phenyl)piperazine-1-carboxylate], for which the pIC50 is 6.58.
For `C[C@@H](NC(=O)c1[nH]c(=O)[nH]c(=O)c1N)c1cccc(-c2cnn(Cc3nc4ccccc4s3)c2)c1` [Example 160, (R)-5-amino-N-(1-(3-(1-(benzo[d]thiazol-2-ylmethyl)-1H-pyrazol-4-yl)phenyl)ethyl)-2,6-dioxo-1,2,3,6-tetra-hydropyrimidine-4-carboxamide] the value was 6.43.
The result for `C[C@@H](NC(=O)c1[nH]c(=O)[nH]c(=O)c1N)c1cccc(-c2cnn(Cc3cccc(C(N)=O)c3)c2)c1` [Example 141, (R)-5-amino-N-(1-(3-(1-(3-carbamoylbenzyl)-1H-pyrazol-4-yl)phenyl)ethyl)-2,6-dioxo-1,2,3,6-tetrahydro-pyrimidine-4-carboxamide] reads 6.05; that for `C[C@H](COc1ccc2c(c1)NC(=O)CC2)NC(=O)c1[nH]c(=O)[nH]c(=O)c1N` [Example 120, (R)-5-amino-2,6-dioxo-N-(1-(2-oxo-1,2,3,4-tetrahydroquinolin-7-yloxy)propan-2-yl)-1,2,3,6-tetrahydropyrimidine-4-carboxamide], 5.27; that for `CC(CNC(=O)c1[nH]c(=O)[nH]c(=O)c1N)Oc1ccc(F)cc1` (centres unmarked) [Example 15, 5-amino-N-(2-(4-fluorophenoxy)propyl)-2,6-dioxo-1,2,3,6-tetrahydropyrimidine-4-carboxamide], 5.00.
The result for `C[C@H](CCc1cccc(C(F)(F)F)c1)NC(=O)c1[nH]c(=O)[nH]c(=O)c1N` [Example 1, (R)-5-Amino-2,6-dioxo-N-(4-(3-(trifluoromethyl)phenyl)butan-2-yl)-1,2,3,6-tetrahydropyrimidine-4-carboxamide] reads 7.10.
`Nc1c(C(=O)NCC2CCN(C(=O)c3ccccc3)C2)[nH]c(=O)[nH]c1=O` (centres unmarked) [Example 44, 5-amino-N-((1-benzoylpyrrolidin-3-yl)methyl)-2,6-dioxo-1,2,3,6-tetrahydropyrimidine-4-carboxamide] showed a pIC50 of 5.51.
Consider `C[C@H](COc1c(Cl)cccc1Cl)NC(=O)c1[nH]c(=O)[nH]c(=O)c1N` [Example 54, (R)-5-amino-N-(1-(2,6-dichloro-phenoxy)propan-2-yl)-2,6-dioxo-1,2,3,6-tetra-hydropyrimidine-4-carboxamide], for which the pIC50 was 7.96.
`Nc1c(C(=O)NCc2cccc(-c3ccc(F)cc3)c2)[nH]c(=O)[nH]c1=O` [Example 25, 5-amino-N-((4′-fluorobiphenyl-3-yl)methyl)-2,6-dioxo-1,2,3,6-tetrahydropyrimidine-4-carboxamide]: the pIC50 is 5.37.
The molecule `C[C@@H](NC(=O)c1[nH]c(=O)[nH]c(=O)c1N)c1cccc(-c2cnn(CC3CCN(C(=O)OCc4ccccc4)CC3)c2)c1` [Example 161, (R)-benzyl 4-((4-(3-(1-(5-amino-2,6-dioxo-1,2,3,6-tetra-hydropyrimidine-4-carboxamido)ethyl)phenyl)-1H-pyrazol-1-yl)methyl) piperidine-1-carboxylate] had a negative logarithm of the IC50 (pIC50) of 6.36.
For `Nc1c(C(=O)NCc2ccc(Oc3ccccc3)cc2)[nH]c(=O)[nH]c1=O` [Example 32, 5-amino-2,6-dioxo-N-(4-phenoxybenzyl)-1,2,3,6-tetrahydropyrimidine-4-carboxamide] the value was 6.15.
The result for `CCCOc1cc(F)ccc1CNC(=O)c1c(O)c(=O)n(C)c(=O)n1CCC` [Example 176, N-(4-fluoro-2-propoxybenzyl)-5-hydroxy-1-methyl-2,6-dioxo-3-propyl-1,2,3,6-tetra-hydropyrimidine-4-carboxamide] reads 5.33; that for `C[C@@H](NC(=O)c1[nH]c(=O)[nH]c(=O)c1N)c1ccc2ccccc2c1` [Example 14, (R)-5-amino-N-(1-(naphthalen-2-yl)ethyl)-2,6-dioxo-1,2,3,6-tetrahydropyrimidine-4-carboxamide], 5.12; that for `C[C@H](COc1ccc(S(C)(=O)=O)cc1)NC(=O)c1[nH]c(=O)[nH]c(=O)c1N` [Example 103, (R)-5-amino-N-(1-(4-(methylsulfonyl)phenoxy)pro-pan-2-yl)-2,6-dioxo-1,2,3,6-tetrahydropyrimidine-4-carboxamide], 6.25.
For `C[C@@H](NC(=O)c1[nH]c(=O)[nH]c(=O)c1O)c1cccc(-c2cnn(Cc3ccccc3)c2)c1` [Example 181, (R)-N-(1-(3-(1-benzyl-1H-pyrazol-4-yl)phenyl)ethyl)-5-hydroxy-2,6-dioxo-1,2,3,6-tetra-hydropyrimidine-4-carboxamide] the value was 8.00; for `Nc1c(C(=O)NCC2Cc3ccccc3C(c3ccccc3)C2)[nH]c(=O)[nH]c1=O` (centres unmarked) [Example 46, 5-amino-2,6-dioxo-N-((4-phenyl-1,2,3,4-tetrahydronaphthalen-2-yl)methyl)-1,2,3,6-tetrahydropyrimidine-4-carboxamide], 6.68; for `Nc1c(C(=O)NCc2c[nH]nc2-c2ccccc2)[nH]c(=O)[nH]c1=O` [Example 30, 5-amino-2,6-dioxo-N-((3-phenyl-1H-pyrazol-4-yl)methyl)-1,2,3,6-tetrahydropyrimidine-4-carboxamide], 6.21.
The molecule `Nc1c(C(=O)NCC2CCc3nn(Cc4ccccc4)cc3C2)[nH]c(=O)[nH]c1=O` (centres unmarked) [Example 50, 5-amino-N-((2-benzyl-4,5,6,7-tetrahydro-2H-indazol-5-yl)methyl)-2,6-dioxo-1,2,3,6-tetrahydropyrimidine-4-carboxamide] had a pIC50 of 5.61.
`Nc1c(C(=O)NCC2CCN(S(=O)(=O)c3ccc(Cl)c(Cl)c3)CC2)[nH]c(=O)[nH]c1=O` [Example 37, 5-amino-N-((1-(3,4-dichloro-phenylsulfonyl)piperidin-4-yl)methyl)-2,6-dioxo-1,2,3,6-tetrahydropyrimidine-4-carboxamide] had a pIC50 of 5.50.
The result for `Nc1c(C(=O)NCCCc2ccc(Cl)c(Cl)c2)[nH]c(=O)[nH]c1=O` [Example 2, 5-amino-N-(3-(3,4-dichlorophenyl)propyl)-2,6-dioxo-1,2,3,6-tetrahydropyrimidine-4-carboxamide] reads 6.83; that for `C[C@H](COc1ccccc1-c1nnco1)NC(=O)c1[nH]c(=O)[nH]c(=O)c1N` [Example 115, (R)-N-(1-(2-(1,3,4-oxadiazol-2-yl)phenoxy)propan-2-yl)-5-amino-2,6-dioxo-1,2,3,6-tetra-hydropyrimidine-4-carboxamide], 5.30.
Regarding `C[C@@H](NC(=O)c1[nH]c(=O)[nH]c(=O)c1N)c1cccc(-c2cnn(CCc3c[nH]c4ccccc34)c2)c1` [Example 155, (R)-N-(1-(3-(1-(2-(1H-indol-3-yl)ethyl)-1H-pyrazol-4-yl)phenyl)ethyl)-5-amino-2,6-dioxo-1,2,3,6-tetrahydro-pyrimidine-4-carboxamide], the pIC50 was 6.37.
